The numbers were not newly measured in US11963942B2, “Oral taxane compositions and methods” (Athenex HK Innovative Limited, priority 2015, dated 2024), which cites them from elsewhere.

For this data set, the target named is MDR1 (ABCB1) (Homo sapiens, UniProt P08183). To be noted: Kwak et al., Eur. J. Pharm. 627, 92-98 (2010).
Sequence of MDR1 (ABCB1) (P08183 whole entry, species assumed): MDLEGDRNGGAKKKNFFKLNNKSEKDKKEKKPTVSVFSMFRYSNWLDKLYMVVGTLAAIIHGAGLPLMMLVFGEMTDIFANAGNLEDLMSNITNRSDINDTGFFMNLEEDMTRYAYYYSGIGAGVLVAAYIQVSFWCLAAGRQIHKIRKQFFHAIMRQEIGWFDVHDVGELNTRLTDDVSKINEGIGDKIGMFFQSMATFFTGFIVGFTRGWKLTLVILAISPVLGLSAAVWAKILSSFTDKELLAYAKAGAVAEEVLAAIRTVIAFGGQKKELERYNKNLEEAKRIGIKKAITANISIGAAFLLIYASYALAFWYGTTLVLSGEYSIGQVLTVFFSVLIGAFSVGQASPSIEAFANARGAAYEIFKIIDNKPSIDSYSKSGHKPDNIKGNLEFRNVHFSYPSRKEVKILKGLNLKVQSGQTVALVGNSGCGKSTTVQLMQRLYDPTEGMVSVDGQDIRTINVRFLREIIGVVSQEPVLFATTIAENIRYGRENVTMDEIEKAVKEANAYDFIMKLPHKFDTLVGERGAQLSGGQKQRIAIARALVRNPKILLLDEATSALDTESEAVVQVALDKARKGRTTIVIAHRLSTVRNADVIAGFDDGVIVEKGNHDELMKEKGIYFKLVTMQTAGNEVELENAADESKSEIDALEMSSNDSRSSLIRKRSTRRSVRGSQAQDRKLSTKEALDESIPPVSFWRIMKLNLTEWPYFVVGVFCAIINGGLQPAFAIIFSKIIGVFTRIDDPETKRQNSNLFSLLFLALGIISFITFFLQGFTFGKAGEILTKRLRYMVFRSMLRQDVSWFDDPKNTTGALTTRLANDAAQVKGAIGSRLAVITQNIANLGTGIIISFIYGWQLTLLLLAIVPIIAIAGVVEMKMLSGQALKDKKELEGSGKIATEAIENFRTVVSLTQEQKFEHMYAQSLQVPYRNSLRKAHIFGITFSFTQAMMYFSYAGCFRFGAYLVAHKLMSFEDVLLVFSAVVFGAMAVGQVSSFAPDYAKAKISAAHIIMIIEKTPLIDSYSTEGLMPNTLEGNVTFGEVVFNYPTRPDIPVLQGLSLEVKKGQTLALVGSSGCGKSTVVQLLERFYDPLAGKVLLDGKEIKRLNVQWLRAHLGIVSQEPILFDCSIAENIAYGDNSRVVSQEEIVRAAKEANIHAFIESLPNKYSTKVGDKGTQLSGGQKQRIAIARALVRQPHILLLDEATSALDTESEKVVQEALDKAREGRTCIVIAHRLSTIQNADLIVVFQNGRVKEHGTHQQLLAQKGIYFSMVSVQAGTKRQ

As for `COc1cc2c(cc1OC)CN(CCc1ccc(-n3nnc(-c4cc(OC)c(OC)cc4NC(=O)c4cc(=O)c5ccccc5o4)n3)cc1)CC2` [HM30181, 4-oxo-4H-chromene-2-carboxylic acid [2-(2-(4-[2-(6,7-dimethoxy-3,4-dihydro-1H-isoquinolin-2-yl)-ethyl]-phenyl)-2H-tetrazol-5-yl)-4,5-dimethoxy-phenyl]-amide], the “potency compared with cyclosporine A” value is given as “more potent than cyclosporine A”.
